Reference: paper PMC8948939 (Pharmaceutics, 2022)
Where two headings read alike, the source gives them in different places.

What was measured:
[1] = Michaelis-Menten kinetics of voriconazole N-oxidation in human liver microsomes; type: in vitro ADME; settings: human, human liver microsomes, pH 7.5
[2] = system: human liver microsomes (HLM); experiment: as above; type: in vitro ADME; settings: N-oxidation of voriconazole; HLM 0.2 mg/mL
[3] = Michaelis-Menten kinetics of voriconazole N-oxidation in human intestine microsomes; type: in vitro ADME; settings: human, human intestine microsomes, pH 7.5
[4] = system: human intestine microsomes (HIM); experiment: as above; type: in vitro ADME; settings: N-oxidation of voriconazole; HIM 0.5 mg/mL
CYP3A4 [5] = experiment: Contribution of CYP3A4 to voriconazole N-oxidation, extrapolation from rhCYP with ISEF; type: in vitro ADME; settings: human, pH 7.5, VRC N-oxidation, read-out: extrapolated CLint,CYPi,HLM (CYP3A4)
Source text: Towards the Elucidation of the Pharmacokinetics of
Josefine Schulz 1, Antonia Thomas 1, Ayatallah Saleh 1,2, Gerd Mikus 1,3, Charlotte Kloft 1,† and Robin Michelet 1,*,† 1 Department of Clinical Pharmacy & Biochemistry, Institute of Pharmacy, Freie Universitaet Berlin, Kelchstraße 31, 12169 Berlin, Germany
2 Graduate Research Training Program PharMetrX, 12169 Berlin/Potsdam, Germany 3 Department of Clinical Pharmacology and Pharmacoepidemiology, University Hospital Heidelberg, Im Neuenheimer Feld 410, 69120 Heidelberg, Germany
* Correspondence: robin.michelet@fu-berlin.de; Tel.: +49-30-838-50659
† These authors contributed equally to this work
Supplementary Section S1. Marker reactions for CYP2C19, CYP2C9 and CYP3A4 […]
for CYP3A4 [1,2] were used to determine (i) intersystem extrapolation factors (ISEF), (ii) […]
(i) Experiments for the determination of Michaelis-Menten kinetics in HLM were performed at protein concentrations of 0.02, 0.04 and 0.05 mg/mL for the marker reactions of CYP2C19, CYP2C9 and CYP3A4 (n = 3 each), respectively. Two samples were taken from each incubation after 15 and 25 min for investigations on CYP2C19, after 5 and 10 min for CYP2C9 and after 7 and 12 min for CYP3A4, respectively. […]
were applied as substrate concentrations.
For investigations in rhCYP concentrations of 2.5 pmol/mL rhCYP2C19 (n = 3), […]
respectively. […]

HLM = HLM derived from three individuals, cited from earlier work
CYP2C19 = CYP2C19 (Homo sapiens, UniProt P33261); settings: read-out: KM of VRC N-oxidation, recombinant CYP2C19, cited from earlier work
Chain of CYP2C19 (P33261 whole entry): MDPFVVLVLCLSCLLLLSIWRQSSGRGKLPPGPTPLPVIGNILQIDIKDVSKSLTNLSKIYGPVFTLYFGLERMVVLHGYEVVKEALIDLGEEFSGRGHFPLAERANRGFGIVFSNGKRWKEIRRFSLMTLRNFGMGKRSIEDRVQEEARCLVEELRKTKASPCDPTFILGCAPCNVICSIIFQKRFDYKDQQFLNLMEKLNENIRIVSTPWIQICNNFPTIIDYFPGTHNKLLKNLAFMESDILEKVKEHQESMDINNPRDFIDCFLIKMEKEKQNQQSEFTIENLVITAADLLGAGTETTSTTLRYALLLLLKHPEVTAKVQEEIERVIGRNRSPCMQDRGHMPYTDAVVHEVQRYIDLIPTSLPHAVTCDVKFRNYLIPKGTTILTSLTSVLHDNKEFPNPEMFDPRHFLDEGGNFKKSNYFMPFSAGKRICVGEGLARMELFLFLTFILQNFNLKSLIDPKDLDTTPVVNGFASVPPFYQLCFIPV

[6] = cited from earlier work
CYP3A4 [7] = settings: mixed inhibition, cited from earlier work
[8] = taken from literature for IVIVE; ref 7 (supplement); cited from earlier work
CYP3A4 [9] = biological target: T1, CYP3A4 (Homo sapiens, UniProt P08684); set-up: purchased Corning Inc; settings: cited from earlier work
T1 sequence (P08684 whole entry): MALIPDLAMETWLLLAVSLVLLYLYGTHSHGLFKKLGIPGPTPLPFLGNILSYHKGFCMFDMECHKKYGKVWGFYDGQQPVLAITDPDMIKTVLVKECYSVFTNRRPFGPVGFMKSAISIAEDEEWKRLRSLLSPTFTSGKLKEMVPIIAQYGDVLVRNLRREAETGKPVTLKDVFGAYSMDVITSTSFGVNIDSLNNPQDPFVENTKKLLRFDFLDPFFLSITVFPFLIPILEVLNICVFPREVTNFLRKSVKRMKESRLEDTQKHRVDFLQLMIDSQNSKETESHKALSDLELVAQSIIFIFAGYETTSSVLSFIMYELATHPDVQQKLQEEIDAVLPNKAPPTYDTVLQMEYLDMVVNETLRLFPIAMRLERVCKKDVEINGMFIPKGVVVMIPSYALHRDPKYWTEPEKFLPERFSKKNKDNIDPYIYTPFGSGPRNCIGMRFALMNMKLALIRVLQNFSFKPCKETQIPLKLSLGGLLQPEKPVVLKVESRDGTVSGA

CYP2C9 = CYP2C9 (Homo sapiens, UniProt P11712); set-up: purchased Corning Inc; settings: read-out: KM of VRC N-oxidation; cited from earlier work
Chain of CYP2C9 (P11712 whole entry): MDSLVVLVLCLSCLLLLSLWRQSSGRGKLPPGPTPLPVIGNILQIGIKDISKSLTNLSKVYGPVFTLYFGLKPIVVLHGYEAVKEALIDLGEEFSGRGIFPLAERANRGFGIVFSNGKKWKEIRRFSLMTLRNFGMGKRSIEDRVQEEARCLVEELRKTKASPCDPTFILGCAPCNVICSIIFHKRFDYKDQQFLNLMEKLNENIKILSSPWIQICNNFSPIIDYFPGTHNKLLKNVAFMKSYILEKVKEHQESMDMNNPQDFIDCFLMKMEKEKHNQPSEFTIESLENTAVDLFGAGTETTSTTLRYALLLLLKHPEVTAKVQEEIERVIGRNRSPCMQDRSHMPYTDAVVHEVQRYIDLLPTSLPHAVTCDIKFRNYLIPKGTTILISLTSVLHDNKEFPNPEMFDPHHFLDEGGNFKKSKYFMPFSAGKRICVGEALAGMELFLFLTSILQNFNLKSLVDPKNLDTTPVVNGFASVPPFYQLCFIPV

CYP3A4 [10] = biological target: T1, CYP3A4; experiment: Michaelis-Menten kinetics of voriconazole N-oxidation by rhCYP3A4

C[C@@H](c1ncncc1F)[C@](O)(Cn1cncn1)c1ccc(F)cc1F [VRC, voriconazole]
microsomal CLint ([1]; HLM, ratio of Vmax and KM): 8.76 µL/min/mg | Km ([1]; read-out: KM (95% CI)): 2.98 µM | Vmax,HLM (95% CI) [2]: 26.1 (25.4–26.8) pmol/min·mg | microsomal CLint ([3]; HIM, ratio of Vmax and KM): 1.52 µL/min/mg | Km ([3]; read-out: KM (95% CI)): 2.53 µM | Vmax,HIM (95% CI) [4]: 3.85 (3.70–4.00) pmol/min·mg | microsomal CLint (CYP3A4 [5]; ISEF based on CLint of the marker reactions): 1.1 µL/min/mg | microsomal CLint (CYP3A4 [5]; ISEF based on Vmax): 2.48 µL/min/mg | Vmax of VRC N-oxidation (HLM): 9.3 pmol/min/mg | Km (HLM; read-out: KM of VRC N-oxidation): 8.1 µM | Km (CYP2C19; ref 31): 3.5 µM | Km (CYP2C19; ref 33): 14 ± 6 µM | bioavailability ([6]; CYP2C19 poor metabolizers): 94% | share of CYP3A4 in the metabolism ([6]; clinical trial, CYP2C19 normal and poor metabolizers with/without ritonavir, ref Mikus et al. 76): 34% | bioavailability ([6]; extensive metabolizers): 75% | Ki (CYP3A4 [7]; competitive part, ref Jeong et al. 43, read-out: Ki (competitive)): […] | Ki (CYP3A4 [7]; noncompetitive part, ref Jeong et al. 43, read-out: Ki (noncompetitive)): […] | Fraction unbound in plasma (fuP) [8]: 0.5 | Km (CYP3A4 [9]; read-out: KM of VRC N-oxidation, ref 31): 235 µM | Km (CYP3A4 [9]; read-out: KM of VRC N-oxidation, ref 33): 16 ± 10 µM | Vmax of VRC N-oxidation (CYP3A4 [9]; ref 31): 0.14 pmol/min·pmol | Vmax of VRC N-oxidation (CYP3A4 [9]; ref 33): 0.05 ± 0.01 nmol/min·nmol | Km (CYP2C9): 20 µM | Vmax,rhCYP (95% CI) (CYP3A4 [10]; N-oxidation of voriconazole): 0.00893 (0.00827–0.00958) pmol/min·pmol | CLint of VRC N-oxidation (CYP3A4 [10]; ratio of Vmax and KM): 0.00742 µL/min/pmol
